In US8846739B2, “TGR5 agonists” (Exelixis Patent Company LLC, priority 2009, dated 2014) one finds EC50 data, which are given here for eight compounds.

Where only a bound is given, the exact number is not on record here.

In experiment [1] the target is T1, human TGR5 (h-TGR5) (Homo sapiens, UniProt Q8TDU6).
T1 sequence (Q8TDU6 1-330): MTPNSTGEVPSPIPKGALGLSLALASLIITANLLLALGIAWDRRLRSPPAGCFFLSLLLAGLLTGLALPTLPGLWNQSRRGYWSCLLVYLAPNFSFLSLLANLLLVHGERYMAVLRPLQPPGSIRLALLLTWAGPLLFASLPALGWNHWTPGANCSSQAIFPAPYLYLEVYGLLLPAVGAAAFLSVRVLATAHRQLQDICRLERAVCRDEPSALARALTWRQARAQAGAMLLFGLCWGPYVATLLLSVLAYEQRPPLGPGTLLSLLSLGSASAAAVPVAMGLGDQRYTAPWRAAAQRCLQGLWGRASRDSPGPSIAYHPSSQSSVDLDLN
Nature of the experiment: TGR5/CRE-Luciferase Assay. In kind it is cell-based. The conditions noted are these: HEK 293 hTGR5/CRE-Luc cells, 6 hours incubation, read-out: CRE-Luc Agonist (EC50). As for the experimental part: HEK 293 cells stably expressing human TGR5 (h-TGR5) or mouse TGR5 (m-TGR5) were generated from HEK 293 CRE-Luciferase cells. The day before the assay, HEK 293 hTGR5/CRE-Luc cells were plated in DMEM in a 384 well assay plate at a density of 25 k cells/45 μL per well and grown for 18-20 hours. Compounds were serially diluted in DMEM containing 5% DMSO and 5 µL of compound or media alone was transferred to each well and plates were incubated for 6 hours. Following incubation, 30 μL of lysis/luciferase buffer was added to each well. The luciferase activity was then measured on the EnVision™ plate reader and the dose response data was analyzed using ActivityBase.
(§1) In the following tables, ECso values determined according to the TGR5 cAMP Assay are noted (cAMP); EC50 values determined according to the TGR5/CRE-Luciferiase Assay are noted (CRE-Luc).

For experiment [2], the target named is T2, h-TGR5 (Homo sapiens, UniProt Q8TDU6).
T2 sequence (Q8TDU6 1-330): T1 sequence (Q8TDU6 1-330)
Put plainly: TGR5 cAMP Assay using Cisbio cAMP Dynamic 2 htrf assay kit. In kind it is cell-based. The following applies: hTGR5CRE-luc HEK 293 cells. On the procedure: Compounds were diluted in DPBS with 5% DMSO (8-point serial dilution by half logs) in a 96-well plate and 1 μL was transferred to a 384-well assay plate in quadruplicate. The d2-cAMP and anti-cAMP Ab-cryptate stock solution were prepared as per the instructions in the Cisbio™ (Bedford, Mass.) kit. Cells (hTGR5CRE-luc HEK 293 and mTGR5CRE-luc HEK 293) were harvested using cell dissociation buffer and resuspended in DPBS. Cells were adjusted to 0.44×10^6 cells/ml followed by addition of IBMX to a final concentration of 0.5 mM. The cells were then mixed with d2-cAMP solution (7.1 mL cells+100 ul d2-cAMP) and 4000 cells (9 μL) were transferred to each well of the 384-well assay plate. Cells without d2-cAMP were added to eight wells as a negative control. The plate was covered and incubated at room temp for 30 min. Then 10 μL of Ab-cryptate solution was added to each well of the assay plate and incubated for 1 hr. The plate was read on an EnVision™ plate reader (Perkin-Elmer, Waltham, Mass.) and the DeltaF value was calculated as per the instructions in the Cisbio™ kit.
as §1

What is called EC50 is the midpoint of the concentration-response curve. With `COc1cc(C(C)(C)c2cnc(SCc3c(F)cc(S(=O)(=O)N(CCC[N+](C)(C)C)CC(=O)O)cc3Cl)n2-c2ccc(F)cc2)ccc1F` [Compound 14n, 3-[(carboxymethyl){[3-chloro-5-fluoro-4-({[5-{1-[4-fluoro-3-(methyloxy)phenyl]-1-methylethyl}-1-(4-fluorophenyl)-1H-imidazol-2-yl]thio}methyl)phenyl]sulfonyl}amino]-N,N,N-trimethylpropan-1-aminium], the half-maximal effective concentration (EC50) in experiment [1] and in experiment [2] was below 100 nM each time.

For the compound `COc1cc(C(C)(C)c2cnc(SCc3c(F)cc(S(=O)(=O)N4CCC([N+](C)(C)C)CC4)cc3F)n2-c2ccc(F)cc2)ccc1Cl` [Compound 11c, 1-{[4-({[5-{1-[4-chloro-3-(methyloxy)phenyl]-1-methylethyl}-1-(4-fluorophenyl)-1H-imidazol-2-yl]thio}methyl)-3,5-difluorophenyl]sulfonyl}-N,N,N-trimethylpiperidin-4-aminium], the EC50 in experiment [1] and in experiment [2] was below 100 nM in each case.

In the case of `COc1cc(C(C)(C)c2cnc(SCc3c(F)cc(CCC[N+](C)(C)C)cc3F)n2-c2ccc(F)cc2)ccc1Cl` [Compound 19a, 3-(4-((5-(2-(4-chloro-3-methoxyphenyl)propan-2-yl)-1-(4-fluorophenyl)-1H-imidazol-2-ylthio)methyl)-3,5-difluorophenyl)-N,N,N-trimethylpropan-1-aminium 2,2,2-trifluoroacetate], the concentration giving a half-maximal response (EC50) in experiment [1] and in experiment [2] was below 100 nM throughout.

As to `CC[C@H](C(=O)O)N(CCC[N+](C)(C)C)S(=O)(=O)c1cc(F)c(CSc2ncc(C(C)(C)c3ccc(Cl)c(OC)c3)n2-c2ccc(F)cc2)c(Cl)c1` [Compound 14ab, 3-([(1R)-1-carboxypropyl]{[3-chloro-4-({[5-{1-[4-chloro-3-(methyloxy)phenyl]-1-methylethyl}-1-(4-fluorophenyl)-1H-imidazol-2-yl]thio}methyl)-5-fluorophenyl]sulfonyl}amino)-N,N,N-trimethylpropan-1-aminium], the half-maximal effective concentration (EC50) in experiment [1] and in experiment [2] was below 100 nM each time.

Consider `COc1cc(C(C)(C)c2cnc(SCc3c(F)cc(C#CC[N+](C)(C)C)cc3F)n2-c2ccc(F)cc2)ccc1Cl` [Compound 18, 3-(4-((5-(2-(4-Chloro-3-methoxyphenyl)propan-2-yl)-1-(4-fluorophenyl)-1H-imidazol-2-ylthio)methyl)-3,5-difluorophenyl)-N,N,N-trimethylprop-2-yn-1-aminium 4-methylbenzenesulfonate], for which the concentration for a half-maximal effect (EC50) in experiment [1] and in experiment [2] was below 100 nM each time.

`COc1cc(C(C)(C)c2cnc(SCc3c(F)cc(S(=O)(=O)NCC[N+](C)(C)C)cc3F)n2-c2ccc(F)cc2)ccc1Cl` [Example 6k, 2-({[4-({[5-{1-[4-chloro-3-(methyloxy)phenyl]-1-methylethyl}-1-(4-fluorophenyl)-1H-imidazol-2-yl]thio}methyl)-3,5-difluorophenyl]sulfonyl}amino)-N,N,N-trimethylethanaminium]: the concentration giving a half-maximal response (EC50) in experiment [1] and in experiment [2] was below 100 nM in each case.

As to `COc1cc(-n2c(C(C)(C)c3ccc(F)c(Cl)c3)cnc2SCc2c(F)cc(CCC[N+](C)(C)C)cc2F)ccc1F` [Compound 19b, 3-(4-((5-(2-(3-chloro-4-fluorophenyl)propan-2-yl)-1-(4-fluoro-3-methoxyphenyl)-1H-imidazol-2-ylthio)methyl)-3,5-difluorophenyl)-N,N,N-trimethylpropan-1-aminium 2,2,2-trifluoroacetate], the EC50 in experiment [1] and in experiment [2] was below 100 nM throughout.

In the case of `COc1cc(C(C)(C)c2cnc(SCc3c(F)cc(S(=O)(=O)N(CCC[N+](C)(C)C)[C@H](C(=O)O)[C@@H](C)O)cc3Cl)n2-c2ccc(F)cc2)ccc1Cl` [Compound 14ac, 3-([(1S,2R)-1-carboxy-2-hydroxypropyl]{[3-chloro-4-({[5-{1-[4-chloro-3-(methyloxy)phenyl]-1-methylethyl}-1-(4-fluorophenyl)-1H-imidazol-2-yl]thio}methyl)-5-fluorophenyl]sulfonyl}amino)-N,N,N-trimethylpropan-1-aminium], the concentration for a half-maximal effect (EC50) in experiment [1] and in experiment [2] was below 100 nM each time.
